This note sets out measurements from EP1207886B1, “SPHINGOMYELINASE INHIBITORS AS AGENTS WITH ANTIAPOPTOTIC AND ANTISEPTIC ACTION” (Biofrontera Pharmaceuticals GmbH, priority 1999, dated 2000).

Holding throughout (type): cell-based, Menschliche
Experiment [1] has as its system Mφ. As to the kind of experiment: Cell culture and apoptosis test (counting YOPRO-1-stained apoptotic cells). The settings on record: differentiated Mφ pretreated 30 min with compound, then mmLDL or TNF α (3 ng/ml); YOPRO-1 count after four hours; read-out: Apoptose (IC-50). From the text:
LDL wurde von gesunden, freiwilligen Testpersonen durch sequentielle Flotation in einer Ultrazentrifuge bei vorbestimmten Dichten erhalten, wie in Havel et al. (J. Clin. Invest. 34, 3145 (1955)) bzw. Deigner et al. (Arzneim.-Forsch./Drug Res. 44, 956, (1994)) beschrieben. Für den Apoptose-Test wurde LDL durch Dialyse gegen Tris-HCl-Puffer, der 20 µMol FeCl3 enthielt, für 48 Stunden minimal modifiziert (mmLDL), wie von Watson et al. (J. Clin. Invest. 95, 774 (1995) beschrieben.
Menschliche, mononucleäre, periphere Blutzellen aus venösem Blut wurden isoliert, gezüchtet und, wie in Kinscherf et al. (The FASEB J. 11, 1317 (1997); The FASEB J. 12, 461 (1998)) beschrieben, bis zum Differenzieren zu Mφ belassen. Differenzierte Mφ wurden mit Lipoproteinmangelserum (P>1,21, durch Ultrazentrifugieren von fötalem Kälberserum hergestellt, wie in Havel et al. beschrieben) für 24 Stunden vor der Testdurchführung gezüchtet, mit der entsprechenden Verbindung für 30 Minuten bei den angeführten Konzentrationen vorbehandelt und anschließlich mLDL oder rekombinantem TNF α (3 ng/ml) in dem gleichen Medium ausgesetzt. Die Bestimmung der Apoptose wurde durch Zählen von YOPRO-1-gefärbten apoptotischen Zellen, wie in Idziorek et al. (J. Immunol. Methods 185, 249 (1995)) beschrieben, nach vier Stunden durchgeführt.

For experiment [2], the system named is Mφ. In words: Apoptosis in Mφ induced by C6-ceramide or mmLDL (YOPRO-1 staining / TUNEL). The settings on record: for programmierten Zelltod in Mφ: mmLDL or ceramide. As for the experimental part:
(§1) Fig. 6 zeigt die Wirkung einer Vorbehandlung von Mφ mit einer Zusammensetzung die [3-(Carbazol-9-yl)-N-propyl]-[2-(4-methoxyphenyl)-ethyl]-methylamin (V6) enthält (2 µM, 30 min), auf die aSMase-Expression und die Apoptose in Mφ (Prozentanteil von apoptotischen Mφ, bestimmt durch YOPRO-1-Färbung nach Inkubation mit Medium oder C6-Ceramid (10 µM) mit oder ohne Vorbehandlung mit der Verbindung V6; Daten sind als Mittelwert ± SEM von drei Experimenten angegeben. *, P ≤ 0,05 vs. Kontrolle oder #, P ≤ 0,05 vs. mit C6-Ceramid behandelten Zellen (120 min)).
(§2) Menschliche, mononucleäre, periphere Blutzellen aus venösem Blut wurden mittels Ficoll-Paque (Sigma, Deisenhofen, BR Deutschland) Dichtegradientenzentrifugierung isoliert. Mφ wurden mmLDL (27 µg/ml), C6-Ceramid (10 µM) bzw. H2O2 (30 µM) unterworfen. Apoptotische Zellen wurden mittels YOPRO-1-Färbung (s. Idziorek et al, J. Immunol. Methods, 185, 1995, 249-258) und/oder mittels TUNEL-Technik (Quantum Appligene, Heidelberg, BR Deutschland) identifiziert. Die Bestimmung der Apoptose (Prozentanteil apoptotischer Zellen) wurde durch Zählen von YOPRO-1-gefärbten apoptotischen Zellen unter Verwendung eines Mikroskops, ausgestattet mit einer Quecksilberlampe und einer Fluoreszenzeinheit in Kombination mit einem Computer-unterstützten Morphometriesystem, quantifiziert.

In the next experiment the test system is Ceramid. In words: Ceramide concentration in cells (diacylglycerol-kinase phosphorylation). The settings on record: Mφ, mmLDL or ceramide. From the text:
Die Ceramidkonzentrationen in den Zellen wurden nach Diacylglycerolkatalysierter Phosphorylierung, wie in Kinscherf et al. (FEBS, 405, 55 (1997)) und Dressler et al. (J. Biol. Chem. 265, 14917 (1990)) beschrieben, bestimmt.
Figur 1 zeigt in einem Diagramm die Phospho-Ceramid-Konzentration (cpm/spot) nach ox. LDL-Stimulierung zum einen ohne (ox) und zum anderen unter Zugabe entsprechender Verbindungen mit der allgemeinen Formel (I), die in den erfindungsgemäßen pharmazeutischen Zusammensetzungen enthalten sein können, nämlich [2-(3,4-Dimethoxyphenyl)-ethyl]-[3-(2-chlorphenothiazin-10-yl)-N-propyl]-methylamin (V3) und [3-(Carbazol-9-yl)-N-propyl]-[2-(4-methoxyphenyl)-ethyl]methylamin (V6). Ferner ist auch die Phospho-Ceramid-Konzentration in Folge der Stimulation durch TNF angegeben.

The target in the next experiment is T1, sauren Sphingomyelinase (Homo sapiens, UniProt P17405).
T1 construct: endogenous in cells; host or cells: human macrophages (treated with compound, then oxidised LDL; lysed, supernatant assayed)
T1 sequence (P17405 47-631): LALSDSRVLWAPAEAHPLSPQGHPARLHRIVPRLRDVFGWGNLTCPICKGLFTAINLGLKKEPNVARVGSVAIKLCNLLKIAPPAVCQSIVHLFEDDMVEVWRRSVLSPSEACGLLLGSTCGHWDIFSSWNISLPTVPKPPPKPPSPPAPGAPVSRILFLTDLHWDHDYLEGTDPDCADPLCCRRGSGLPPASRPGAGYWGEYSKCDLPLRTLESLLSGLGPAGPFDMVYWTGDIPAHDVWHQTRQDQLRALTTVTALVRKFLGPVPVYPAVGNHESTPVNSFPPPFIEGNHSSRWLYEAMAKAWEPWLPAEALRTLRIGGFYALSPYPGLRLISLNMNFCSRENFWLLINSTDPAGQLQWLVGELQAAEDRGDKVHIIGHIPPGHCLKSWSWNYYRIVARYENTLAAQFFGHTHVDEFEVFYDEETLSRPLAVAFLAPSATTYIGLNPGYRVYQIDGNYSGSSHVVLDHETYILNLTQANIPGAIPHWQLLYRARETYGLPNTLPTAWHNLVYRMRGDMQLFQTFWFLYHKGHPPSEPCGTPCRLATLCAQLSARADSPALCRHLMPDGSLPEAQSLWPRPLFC
In words: SMase inhibition in cells (activity in cell lysates, BODIPY-FL-C5-sphingomyelin, HPLC). Particulars: for IC50: human macrophages pretreated 30 min with compound, then 2 h oxidised LDL (27 µg/ml), lysate activity at pH 5,0, read-out: Hemmung der sauren Sphingomyelinase (Zellen) (IC-50).

A further experiment deals with aSMase. In words: RT-PCR of aSMase expression in Mφ. The settings on record: for mmLDL- oder Ceramid-induzierte Enzyminduktion: Mφ. The method, then:
Fig. 5 zeigt die RT-PCR von aSMase in Mφ. Es zeigt sich eine Expression von aSMase (687 bp) nach Inkubation (4 h) von Mφ mit steigenden mmLDL-Konzentrationen.
as §1, §2
Für die Amplifizierung der aSMase waren die Primer und die Bedingungen wie folgt: 5'-[…]-3' (vorwärts) und 5'-[…]-3', 94°C, 60°C, 72°C, jeweils 1 min, 40 Zyklen (Sequenzanalyse des gereinigten PCR-Produkts durch das Deutsche Krebsforschungszentrum, Heidelberg, BR Deutschland, bestätigte die Amplifizierung des erwarteten aSMase-Fragments).

Description for sauren Sphingomyelinase: Menschliche Makrophagen wurden mit entsprechenden, in den erfindungsgemäßen Zusammensetzungen enthaltenen Verbindungen für 30 Minuten und anschließend zwei Stunden mit oxidiertem LDL (27 µg/ml) vorbehandelt. Anschließend wurde das Medium entfärbt, die Zellen mit vorgekühltem (4°C) PBS gewaschen und 15 Minuten mit Lysepuffer (NaAc, 250 mMol, pH 5,0, TritonX-100 0,2%) bei 4°C behandelt und zentrifugiert (18.000 g). Die Überstände (5 µl) wurden mit ARB-Puffer (NaAc, 250 mMol, pH 5,0) unter Erhalten einer Proteinkonzentration von 80 µg/ml verdünnt, 45 Minuten mit BODIPY®-FL-C5-sphingomyelin (8 nM) bei 37°C inkubiert. Anschließend wurden 150 µl Methanol (interner Standard: C5-BODIPY®-Säure) zugegeben. Die Proben wurden einer HPLC-Analyse (50% MeOH/10% Tris-HCl, pH 7,5, 10 mMol, 2 ml/min, E. Merck Lichrospher 125-4, 100-5 µMol RP-18, Fluoreszenzdetektion 503Ex/512Em) unterworfen.

Take “10-(3-{4-[2-(3,-Dimethoxyphenyl)-ethyl]-3,5-dimethylpiperazin-1-yl}-propyl)-9H-carbazol [V42]”: the IC50 in the experiment on Mφ [1] stood at 4 µM. As to `COc1ccc(Cn2c(=O)c3ccccc3n(Cc3ccc(OC)cc3)c2=O)cc1` [1,3-Bis-(4-methoxybenzyl)-1H-chinazolin-2,4-dion], the IC50 in the experiment with Mφ [1] is 0.5 µM. Turning to `COc1ccc(Cn2c(=O)[nH]c3ccccc3c2=O)cc1` [3-(4-Methoxybenzyl)-1H-chinazolin-2,4-dion], the IC50 in the experiment on Mφ [1] was found to be 3 µM. Still for that read-out and setting: the value for `COc1ccc(Cn2c3ccccc3c3ccccc32)cc1` [9-(4-Methoxybenzyl-9H-carbazol)] was 1 µM. `COc1ccc(CCN(C)CCCN2c3ccccc3Sc3ccc(Cl)cc32)cc1OC` [V3, [2-(3,4-Dimethoxyphenyl)-ethyl]-[3-(2-chlorphenothiazin-10-yl)-N-propyl]-methylamin]: in the experiment on Mφ [2], the “programmierten Zelltod in Mφ” value was “vermindert”. For the same compound, the “Stimulierung der Ceramidbildung” value in the experiment on Ceramid was “inhibieren”. Besides, the IC50 at sauren Sphingomyelinase stood at 6 µM; in the experiment on Mφ [1] it was 2 µM. For the same compound, in the experiment with aSMase, the “mmLDL- oder Ceramid-induzierte Enzyminduktion” value is on record as “inhibieren”.

As to `COc1ccc(CCN(C)CCCN2c3ccccc3Sc3ccc(Cl)cc32)cc1` [V4, [2-(4-Methoxyphenyl)-ethyl]-[3-(2-chlorphenothiazin-10-yl)-N-propyl]-methylamin], in the experiment on Mφ [1], the IC50 amounted to 5 µM. Regarding `COc1ccc(CCN(C)CCCn2c3ccccc3c3ccccc32)cc1OC` [V5, [3-(Carbazol-9-yl)-N-propyl]-[2-(3,4-dimethoxyphenyl)-ethyl]methylamin], the IC50 on sauren Sphingomyelinase is 8 µM. For the compound `COc1ccc(CCN(C)CCCn2c3ccccc3c3ccccc32)cc1` [V6, [3-(Carbazol-9-yl)-N-propyl]-[2-(4-methoxyphenyl)-ethyl]methylamin], the “programmierten Zelltod in Mφ” value with Mφ [2] was “vermindert”. The “Induktion von Apoptose” value in the experiment on Mφ [2] (pretreatment of Mφ (2 µM, 30 min), C6-Ceramid (10 µM), YOPRO-1) is given as “verhinderte”. In addition, the “Stimulierung der Ceramidbildung” value in the experiment on Ceramid is “inhibieren”. Further, the “Aktivierung des Enzyms” value on sauren Sphingomyelinase (ceramide-treated Mφ, measured in cell lysates) is “verhinderte”. The IC50 on sauren Sphingomyelinase was found to be 9 µM. The “durch mmLDL (27 µg/ml) initiierten Anstieg der aSMase-Aktivität in Zelllysaten” value on sauren Sphingomyelinase (pretreatment of Mφ, mmLDL 27 µg/ml, basal activity 2,18 nmol/h x mg) is reported as “vollständig verhindert”. Also, the “mmLDL- oder Ceramid-induzierte Enzyminduktion” value with aSMase is on record as “inhibieren”. The “Ceramid-vermittelte aSMase-Transkription” value in the experiment with aSMase (pretreatment of Mφ (2 µM, 30 min), C6-Ceramid (10 µM)) is on record as “verhinderte”. For `COc1ccc(CCN(C)CCN2c3ccccc3CCc3ccccc32)cc1OC` [V15, [2-(10,11-Dihydro-dibenzo[b,f]azepin-5-yl)-N-ethyl]-[2-(3,4-dimethoxyphenyl)-ethyl]methylamin], at sauren Sphingomyelinase, the IC50 came to 14 µM.

In the case of `COc1ccc(CCN(C)CCN2c3ccccc3CCc3ccccc32)cc1` [V16, [2-(10,11-Dihydro-dibenzo[b,f]azepin-5-yl)-N-ethyl]-[2-(4-methoxyphenyl)-ethyl]methylamin], the IC50 at sauren Sphingomyelinase is 16 µM.

Consider `COc1ccc(CCN2CCN(CCn3c4ccccc4c4ccccc43)CC2)cc1` [V18, N-[2-(Carbazol-9-yl)-N-ethyl]-N'-[2-(4-methoxyphenyl)-ethyl]piperazin], for which the IC50 on sauren Sphingomyelinase worked out at 33 µM. As for `COc1ccc(CCNCCCNC2c3ccccc3CCc3ccccc32)cc1` [V22, N-(5H-Dibenzo[a,d]cycloheptan-5-yl)-N'-[2-(4-methoxyphenyl)-ethyl]-propylendiamin], the IC50 on sauren Sphingomyelinase was 10 µM. Same read-out and setting: the value for `COc1ccc(CCN(C)CCn2c3ccccc3c3ccccc32)cc1` [V23, [2-(Carbazol-9-yl)-N-ethyl]-[2-(4-methoxyphenyl)-ethyl]methylamin] was 8 µM. Consider `COc1ccc(CCN(C)CCC=C2c3ccccc3CCc3ccccc32)cc1` [V31, [3-(10,11-Dihydro-dibenzo[a,d]cyclohepten-5-yliden)-propyl]-[2-(4-methoxyphenyl)-ethyl]methylamin], for which the IC50 is 20 µM on sauren Sphingomyelinase and 1.5 µM in the experiment with Mφ [1]. As to `COc1ccc(CCN(C)C(F)(F)C(F)(F)C(F)(F)C(F)(F)n2c3ccccc3c3ccccc32)cc1` [V32, (4-Carbazol-9-yl-1,1,2,2,3,3,4,4-octafluorbutyl)-[2-(4-methoxyphenyl)-ethyl]-methylamin], the IC50 with Mφ [1] was 18 µM. In the case of `COc1ccc(CCN(C)CCCN(c2ccccc2)c2ccccc2)cc1` [V34, N-[2-(4-Methoxyphenyl)-ethyl]-N-methyl-N',N'-diphenylpropan-1,3-diamin], the IC50 with Mφ [1] came out at 3 µM. The same measure, in the same setting: the figure for `COc1ccc(CCN(C)CCCN(c2ccccc2)c2ccccc2)cc1OC` [V35, N-[2-(3,4-Dimethoxyphenyl)-ethyl]-N-methyl-N',N'-diphenylpropan-1,3-diamin] is 6 µM; for `COc1ccc(CCN2C(C)CN(CCCN3c4ccccc4Oc4ccccc43)CC2C)cc1` (stereo not drawn) [V36, 10-(3-{4-[2-(4-Methoxyphenyl)-ethyl]-3,5-dimethylpiperazin-1-yl}-propyl)-10H-phenoxazin] it is 1 µM; for `COc1ccc(CCN(C)CCCN2c3ccccc3Oc3ccccc32)cc1OC` [V37, [2-(3,4-Dimethoxyphenyl)-ethyl]-methyl-(phenoxazin-10-yl-propyl)amin] it is 2.5 µM. Still for that read-out and setting: the value for `COc1ccc(CCN(C)CCC=C2c3ccccc3CCc3ccccc32)cc1OC` [V38, [3-(10,11-Dihydro-dibenzo[a,d]cyclohepten-5-yliden)-propyl]-[2-(3,4-dimethoxyphenyl)-ethyl]methylamin] was 6 µM; that for `COc1ccc(CCN2CCCN(C3c4ccccc4CCc4ccccc43)C2)cc1OC` [V41, N-(10,11-Dihydro-5H-dibenzo[a,d]cyclohepten-5-yl)-N'-[2-(3,4-dimethoxyphenyl)-ethyl]-hexahydropyrimidin] was 7 µM.
